Entries after “also recorded” stand apart in the source; their conditions may differ.
Tests used:
[1] = test system: rat collagen induced arthritis (CIA) model; experiment: Rat collagen-induced arthritis model: clinical score; conditions: for reduction in the clinical score: in comparison to the vehicle treatment
Description: Adult female Lewis Rats (180-200 g body weight) were immunized subcutaneously with Type II bovine collagen/Incomplete Freund's Adjuvant emulsion on Day 0 and Day 7. On Day 14 rats were randomized based on clinical disease scores in different treatment groups. Rats received either once daily (q.d) dose of compounds via oral gavage or Vehicle (0.5% Carboxymethylcellulose-Na+0.5% Tween 80 in water, suspension) for 2 weeks. Naïve rats used as controls.

splenic Tregs = experiment: Rat CIA model: splenic Treg levels; format: in vivo; conditions: for reduction in the Treg levels: in comparison to vehicle
Description: For isolation of synovial fluid prior to study termination, animals were anesthetized and the skin on the hind limbs were separated to ensure exposure of knee joint. A small incision was made near the top of the knee joint and the articular cavity was rinsed with 60 μl phosphate-buffered saline (PBS) for 2 time and ˜50-60 μl synovial fluid was collected. The synovial fluid samples were spun down, and the supernatant stored at −80° C. prior to cytokine analysis. At study termination, plasma was prepared from whole blood and stored at −80° C. prior to cytokine analysis and measurement of total and anti-collagen IgG. Single cell suspensions were prepared from harvested spleens following standard methods and Treg frequencies measured by flow cytometry-based immunophenotyping of freshly isolated cells.
Harvested spleens were homogenized in cold PBS and cellular debris removed by passing through a […] cell strainer. The cell suspension was centrifuged at 300×g for 5 min at 4° C. and the pellet was treated with 1×RBC lysis buffer per manufacturer's protocol (Thermofisher). The washed cell pellet was resuspended for a final concentration of 5-10×10^6 cells/ml and 100 μl of cell suspension was processed for immunophenotyping. […] Cells were washed with cold FACS wash buffer (BD) and fixed with 1×FoxP3/Transcription Factor Fixation Buffer (Thermofisher) for overnight at 4° C. […] Cells were washed 2-3× with the permeabilization and wash buffer as mentioned earlier, and finally resuspended in FACS wash buffer. Samples were acquired on a BD LSRFortessa flow cytometer and data analyzed using the FlowJo software (BD).

Tregs = experiment: Naïve mice: Treg levels after 4 weeks of dosing; format: in vivo; conditions: 100 mg/kg dose, in comparison to vehicle control
Description: Mice were dosed for 4 weeks with REO-751 or REO-095 and splenocytes were analyzed for Treg levels. Specifically, REO-751 or REO-095 MALT1 inhibitors were dosed at one of 1 mg/kg (mpk), 10 mg/kg (mpk), or 100 mg/kg (mpk).

MALT1 [2] = biological target: T1, MALT1 (Homo sapiens, UniProt Q9UDY8); experiment: Example IC50 and IC90 values of MALT1 inhibitors (blood concentration targets); format: cell-based; conditions: example values, blood concentration target; read-out: IC90
T1 sequence (Q9UDY8 1-824): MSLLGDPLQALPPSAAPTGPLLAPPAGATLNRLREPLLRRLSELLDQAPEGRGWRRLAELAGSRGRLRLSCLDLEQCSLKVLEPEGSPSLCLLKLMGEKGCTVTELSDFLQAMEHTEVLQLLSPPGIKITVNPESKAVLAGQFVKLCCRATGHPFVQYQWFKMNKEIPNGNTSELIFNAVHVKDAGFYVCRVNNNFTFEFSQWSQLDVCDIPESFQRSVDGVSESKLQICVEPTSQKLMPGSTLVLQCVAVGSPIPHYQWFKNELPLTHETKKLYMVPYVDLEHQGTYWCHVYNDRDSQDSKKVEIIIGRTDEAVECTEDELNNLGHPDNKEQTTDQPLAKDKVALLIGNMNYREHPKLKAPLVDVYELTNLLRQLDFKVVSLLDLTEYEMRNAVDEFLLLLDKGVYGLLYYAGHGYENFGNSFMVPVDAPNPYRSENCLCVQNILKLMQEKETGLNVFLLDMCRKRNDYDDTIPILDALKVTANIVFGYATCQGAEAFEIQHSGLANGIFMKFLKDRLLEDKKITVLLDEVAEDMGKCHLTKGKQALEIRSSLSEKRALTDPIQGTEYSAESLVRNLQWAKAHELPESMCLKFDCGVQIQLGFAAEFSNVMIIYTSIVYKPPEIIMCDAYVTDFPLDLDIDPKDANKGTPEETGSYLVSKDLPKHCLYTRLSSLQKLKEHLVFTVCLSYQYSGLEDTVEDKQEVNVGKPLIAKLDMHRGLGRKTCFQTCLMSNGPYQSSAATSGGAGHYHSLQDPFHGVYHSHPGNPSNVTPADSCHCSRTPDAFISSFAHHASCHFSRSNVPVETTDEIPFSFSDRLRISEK
Text: In various embodiments, the plasma PK profile of the MALT1 inhibitor refers to a time over an IC50 blood concentration target following administration to the subject. As used herein, a “time over an IC50 blood concentration target” refers to a period of time following administration in which a concentration of the MALT1 inhibitor in the subject's blood is above the IC50 value.
In various embodiments, the plasma PK profile of the MALT1 inhibitor refers to a time over an IC90 blood concentration target following administration to the subject. As used herein, a “time over an IC90 blood concentration target” refers to a period of time following administration in which a concentration of the MALT1 inhibitor in the subject's blood is above the IC90 value.

MALT1 [3] = biological target: T1, MALT1; experiment: IC50 and Kd values of MALT1 inhibitors (FIG. 17C)
[4] = test system: spleen TFH cells, GC B cells, Treg cells; experiment: Mouse GVHD model: spleen cell populations (TFH, GC B cells, Tregs); format: in vivo, mice
Text: Here, FIGS. 22C-22E show percentages of each cell population in spleen, as measured by flow cytometry.

[5] = Mouse GVHD model: pharmacokinetics; format: in vivo, mice; conditions: C57Bl/6, blood, oral; 100 mg/kg, on Day 55, mouse GVHD model; read-out: concentration at 24 hours post-administration
Description: (§1) At time=0, mice were dosed with 1) naive, 2) vehicle, 3) REO-751 MALT1 inhibitor (100 mg/kg), or 4) ruxolitinib (60 mg/kg). […] GVHD scores were determined by monitoring the behavior of the mice post-administration according to the following grading system.

[6] = test system: sclerodermatous GVHD (scGVHD) model; experiment: Mouse GVHD (scGVHD) model: GVHD score and progression-free survival; format: in vivo, mice; conditions: 100 mg/kg orally once daily days 21-56, at the end (Day 56)
Description: In this example, REO-751 MALT1 inhibitor at a dose of 100 mg/kg was administered to mice of a graft versus host disease (GVHD) model to investigate the impact of the administration of the MALT1 inhibitor. The effects of MALT1 inhibitors were evaluated in scGVHD and delayed-type hypersensitivity (DTH) models. For the scGVHD model, bone marrow (1E7 cells) and splenocytes (4E6) from LP/J donors were transferred to C57Bl/6 recipients that had received 8.5. Gy of total irradiation on the previous day. For the DTH model, female Balb/c mice were immunized with keyhole limpet hemocyanin (KLH) subcutaneously on day 0 and challenged with KLH intradermally 7 days later.
as §1
FIGS. 22A-22F show results following administration of a MALT1 inhibitor. Here, “Cpd1” and Cpd2” as shown in FIGS. 22A-22F refer to REO-751 MALT1 inhibitor. FIGS. 22A and 22B show overall survival (OS) and progression-free survival (PFS) Kaplan Meier curves, respectively, in a murine model of sclerodermatous GVHD (scGVHD) following administration of a MALT1 inhibitor. […]

IL-2R signaling (pSTAT5) = conditions: 1 μM, positive control
Description: Purified Tregs were expanded as indicated above. […] Tregs were then stimulated with 25 IU IL-2 (Peprotech) for 15 min, followed by fixation with 2% paraformaldehyde. […] Levels of pSTAT5 were analyzed on a BD LSRFortessa flow cytometer.
Next, the impact of MALT1i on IL2R signaling was investigated. IL-2R signaling results in phosphorylation of STAT5 (pSTAT5) and is dependent on JAK1/3. Therefore, a flow cytometric readout of pSTAT5 was used to measure IL-2R activity and the JAK1/3-inhibitor tofacitinib served as a positive control for inhibition of pSTAT5.

Row | IC90 (MALT1 [2]) [µM] | Compound | reduction in the clinical score ([1]; 3 mg/kg dose) [%] | reduction in the clinical score ([1]; 10 mg/kg dose) [%] | reduction in the clinical score ([1]; 30 mg/kg dose) [%] | log10AUC value at ~50% reduction in the clinical score ([1]; rat CIA model) [μg*hr/mL] | reduction in the Treg levels (splenic Tregs; 3 mg/kg dose, CIA rats) [%] | reduction in the Treg levels (splenic Tregs; 10 mg/kg dose, CIA rats) [%] | reduction in the Treg levels (splenic Tregs; 30 mg/kg dose, CIA rats) [%] | reduction of Treg levels (Tregs) [%] | dose-dependent efficacy (FIG. 12A) ([1]; rat CIA model) | other results
1 |  | CO[C@@H](C)c1c(Nc2ccc([C@H](N(C)C(=O)C3CCN(C(C)=O)CC3)C(F)(F)F)cc2)cnc2cc(Cl)nn12 [REO-076] | 23 | 42 | 74 | ~1.85 | 24 | 30 | 40 |  |  | log10AUC value at ~40% reduction in Treg levels (splenic Tregs; rat CIA model): ~2.25 μg*hr/mL
2 |  | O=C(Nc1ccnc(C(F)(F)F)c1)c1cnn(-c2cccc3c(=O)[nH]ccc23)c1C(F)(F)F [REO-095] |  |  |  |  |  |  |  | 32 |  | 
3 | 5.78 | CO[C@@H](C)c1c(Nc2ccc([C@H](N(C)C(=O)C3CCS(=O)(=O)CC3)C(F)(F)F)cc2)cnc2cc(Cl)nn12 [REO-528] | 24 | 59 | 74 | ~1.2 | 3 | 36 | 37 |  | showed efficacy in a rat CIA model in a dose-dependent manner | log10Cmax value at ~50% reduction in the clinical score ([1]; rat CIA model): ~3.3 ng/mL; log10Ctrough value at ~50% reduction in the clinical score ([1]; rat CIA model): ~2.2 ng/mL; qualitative efficacy (FIG. 11) ([1]; rat CIA model): high efficacy; dose-dependent reduction of Tregs (FIG. 12B) (splenic Tregs; rat CIA model): dose-dependent reduction of Tregs was observed; log10Cmax value at ~40% reduction in Treg levels (splenic Tregs; rat CIA model): ~3.9 ng/mL; log10Ctrough value at ~50% reduction in Treg levels (splenic Tregs; rat CIA model): ~2.6 ng/mL; qualitative Treg impact (FIG. 11) (splenic Tregs; rat CIA model): low Treg impact
4 | 4.95 | O=C(Nc1ccnc(C(F)(F)F)c1)Nc1cnn2ccc(Cl)c2c1C1CC1 [REO-703] | 35 | 57 | 60 | ~1.2 |  |  |  |  | showed efficacy in a rat CIA model in a dose-dependent manner | reduction in the Treg levels (splenic Tregs; CIA rats, 3, 10 and 30 mg/kg): none of the doses of REO-703 resulted in a statistically significant reduction; also recorded: did not exhibit reduction of Tregs
5 |  | CO[C@@H](C)c1c(NC(=O)Nc2cnc(-n3nccn3)c(Cl)c2)cnc2cc(Cl)nn12 [REO-751] |  |  |  |  |  |  |  | 76 |  | potency (IC50 values and Kd value) in comparison to REO-095 (MALT1 [3]): increased potency; difference in Treg with treatment [4]: No difference; concentration at 24 h [5]: 385 ng/mL; mice achieving progression free survival [6]: 40%
6 |  | C[C@@H]1CCN(C(=O)CC#N)C[C@@H]1N(C)c1ncnc2[nH]ccc12 [tofacitinib, reference compound] |  |  |  |  |  |  |  |  |  | basal levels of pSTAT5 in Tregs (IL-2R signaling (pSTAT5)): reduced; reduction in the endpoint clinical score ([1]; 5 mg/kg dose): 75%

From US20250032493A1, “Methods for Treating Diseases Using MALT1 Inhibitors” (RARIFIED BIOSCIENCES, INC., priority 2021, published 2025)
